What was measured:
Assay type in all cases: in vivo
[1] = test system: ryegrass, It. (Italian ryegrass, Lolium multiflorum); assay: Test A preemergence, directed soil spray, visual injury rating; settings: 0 is no effect, 100 is complete control
How it was run: (§1)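 Compounds in a surfactant-containing solvent were applied as a directed soil spray preemergence, or postemergence to plants 2-10 cm tall at the one- to two-leaf stage, in loam-sand blend. After about 10 d in the greenhouse, injury was rated visually against untreated controls on a 0-100 scale (100 = complete control).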

[2] = test system: kochia (Kochia scoparia); assay: as above; settings: 0 is no effect, 100 is complete control
How it was run: as §1

[3] = test system: Foxtail, Green; assay: as above; settings: 0 is no effect, 100 is complete control
[4] = test system: barnyardgrass (Echinochloa crus-galli); assay: as above; settings: 0 is no effect, 100 is complete control
How it was run: as §1

[5] = test system: ragweed (common ragweed, Ambrosia elatior); assay: as above; settings: 0 is no effect, 100 is complete control
How it was run: as §1

[6] = test system: pigweed (Amaranthus retroflexus); assay: as above; settings: 0 is no effect, 100 is complete control
How it was run: as §1

[7] = test system: ducksalad (Heteranthera limosa); assay: Test B flooded paddy test, visual rating; settings: Flood, 250 g ai/ha, applied to paddy water, rated after 13 to 15 d
How it was run: (§2)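 Plants grown to the 2-leaf stage. At treatment, pots were flooded to 3 cm above the soil, compound was applied directly to the paddy water, and that depth was held throughout. After 13 to 15 d in the greenhouse, response was rated visually against controls on a 0 (no effect) to 100 (complete control) scale.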

[8] = test system: barnyardgrass (Echinochloa crus-galli); assay: Test B flooded paddy test, visual rating; settings: Flood, 250 g ai/ha, applied to paddy water, rated after 13 to 15 d
How it was run: as §2

[9] = test system: rice (Oryza sativa); assay: Test B flooded paddy test, visual rating; settings: Flood, 250 g ai/ha, applied to paddy water, rated after 13 to 15 d
How it was run: as §2

[10] = test system: sedge, umbrella (small-flower umbrella sedge, Cyperus difformis); assay: Test B flooded paddy test, visual rating; settings: Flood, 250 g ai/ha, applied to paddy water, rated after 13 to 15 d
How it was run: as §2

[11] = test system: blackgrass (Alopecurus myosuroides); assay: Test A postemergence application, visual injury rating; settings: 0 to 100 scale, 0 no effect, 100 complete control
How it was run: as §1

[12] = test system: wheat (Triticum aestivum); assay: as above; settings: for Wheat plant response rating: 0 to 100 scale, 0 no effect, 100 complete control
How it was run: as §1

[13] = test system: ryegrass, It. (Italian ryegrass, Lolium multiflorum); assay: as above; settings: for Ryegrass, It. plant response rating: 0 to 100 scale, 0 no effect, 100 complete control
How it was run: as §1

[14] = test system: corn (Zea mays); assay: as above; settings: for Corn plant response rating: 0 to 100 scale, 0 no effect, 100 complete control
How it was run: as §1

[15] = test system: kochia (Kochia scoparia); assay: as above; settings: for Kochia plant response rating: 0 to 100 scale, 0 no effect, 100 complete control
How it was run: as §1

[16] = test system: Foxtail, Green; assay: as above; settings: for Foxtail, Green plant response rating: 0 to 100 scale, 0 no effect, 100 complete control
How it was run: as §1

[17] = test system: barnyardgrass (Echinochloa crus-galli); assay: as above; settings: 0 to 100 scale, 0 no effect, 100 complete control
How it was run: as §1

[18] = test system: galium (catchweed bedstraw, Galium aparine); assay: as above; settings: for Galium plant response rating: 0 to 100 scale, 0 no effect, 100 complete control
How it was run: as §1

[19] = test system: ragweed (common ragweed, Ambrosia elatior); assay: as above; settings: for Ragweed plant response rating: 0 to 100 scale, 0 no effect, 100 complete control
How it was run: as §1

[20] = test system: pigweed (Amaranthus retroflexus); assay: as above; settings: for Pigweed plant response rating: 0 to 100 scale, 0 no effect, 100 complete control
How it was run: as §1

[21] = 31 g ai/ha, 0 is no effect, 100 is complete control

**Q.** What does the source list for Cn1nc(Cl)c(O)c(-c2cccc3c2nnn3C)c1=O [Compound 61]?
**A.** Plant response rating (0 to 100 scale), Ryegrass, It. ([1]; 31 g ai/ha): 0; Plant response rating (0 to 100 scale), Ryegrass, It. ([1]; 125 g ai/ha): 0; Plant response rating (0 to 100 scale), Kochia ([2]; 31 g ai/ha): 0; Plant response rating (0 to 100 scale), Kochia ([2]; 125 g ai/ha): 0; Plant response rating (0 to 100 scale), Foxtail, Green ([3]; 31 g ai/ha): 0; Plant response rating (0 to 100 scale), Foxtail, Green ([3]; 125 g ai/ha): 0; Plant response rating (0 to 100 scale), Barnyardgrass ([4]; 31 g ai/ha): 0; Plant response rating (0 to 100 scale), Barnyardgrass ([4]; 125 g ai/ha): 0; Plant response rating (0 to 100 scale), Ragweed ([5]; 31 g ai/ha): 0; Plant response rating (0 to 100 scale), Ragweed ([5]; 125 g ai/ha): 0; Plant response rating (0 to 100 scale), Pigweed ([6]; 31 g ai/ha): 0; Plant response rating (0 to 100 scale), Pigweed ([6]; 125 g ai/ha): 0; Ducksalad plant response rating (0 to 100 scale, 0 is no effect, 100 is complete control) [7]: 0; Barnyardgrass plant response rating (0 to 100 scale, 0 is no effect, 100 is complete control) [8]: 0; Rice plant response rating (0 to 100 scale, 0 is no effect, 100 is complete control) [9]: 0; Sedge, Umbrella plant response rating (0 to 100 scale, 0 is no effect, 100 is complete control) [10]: 0; Blackgrass plant response rating ([11]; 31 g ai/ha): 0; Blackgrass plant response rating ([11]; 125 g ai/ha): 0; Plant response rating (0 to 100 scale), Wheat [12, 21]: 0; Wheat plant response rating ([12]; 125 g ai/ha): 0; Plant response rating (0 to 100 scale), Ryegrass, It. [13, 21]: 0; Ryegrass, It. plant response rating ([13]; 125 g ai/ha): 0; Plant response rating (0 to 100 scale), Corn [14, 21]: 0; Corn plant response rating ([14]; 125 g ai/ha): 0; Plant response rating (0 to 100 scale), Kochia [15, 21]: 0; Kochia plant response rating ([15]; 125 g ai/ha): 0; Plant response rating (0 to 100 scale), Foxtail, Green [16, 21]: 0; Foxtail, Green plant response rating ([16]; 125 g ai/ha): 0; Barnyardgrass plant response rating ([17]; 31 g ai/ha): 0; Barnyardgrass plant response rating ([17]; 125 g ai/ha): 0; Plant response rating (0 to 100 scale), Galium [18, 21]: 0; Galium plant response rating ([18]; 125 g ai/ha): 0; Plant response rating (0 to 100 scale), Ragweed [19, 21]: 0; Ragweed plant response rating ([19]; 125 g ai/ha): 0; Plant response rating (0 to 100 scale), Pigweed [20, 21]: 0; Pigweed plant response rating ([20]; 125 g ai/ha): 0

**Q.** Which results are given for Cc1nn(C)c(=O)c(-c2ccc(Cl)c3ccsc23)c1OC(=O)c1ccccc1 [Compound 35]?
**A.** Plant response rating (0 to 100 scale), Ryegrass, It. ([1]; 1000 g ai/ha): 80; Plant response rating (0 to 100 scale), Kochia ([2]; 1000 g ai/ha): 0; Plant response rating (0 to 100 scale), Foxtail, Green ([3]; 1000 g ai/ha): 0; Plant response rating (0 to 100 scale), Barnyardgrass ([4]; 1000 g ai/ha): 20; Plant response rating (0 to 100 scale), Ragweed ([5]; 1000 g ai/ha): 10; Plant response rating (0 to 100 scale), Pigweed ([6]; 1000 g ai/ha): 0; Blackgrass plant response rating ([11]; 1000 g ai/ha): 30; Wheat plant response rating ([12]; 1000 g ai/ha): 0; Ryegrass, It. plant response rating ([13]; 1000 g ai/ha): 70; Corn plant response rating ([14]; 1000 g ai/ha): 0; Kochia plant response rating ([15]; 1000 g ai/ha): 0; Foxtail, Green plant response rating ([16]; 1000 g ai/ha): 0; Barnyardgrass plant response rating ([17]; 1000 g ai/ha): 20; Galium plant response rating ([18]; 1000 g ai/ha): 100; Ragweed plant response rating ([19]; 1000 g ai/ha): 0; Pigweed plant response rating ([20]; 1000 g ai/ha): 0
